Results: ChEMBL document CHEMBL1148826, “Substituted 6-(1-pyrrolidine)quinolin-2(1H)-ones as novel selective androgen receptor modulators” (J Med Chem, 2007)

How the values were obtained:
Androgen receptor [1] = target: T1, Androgen receptor (Homo sapiens, UniProt P10275)
T1 sequence (P10275 whole entry): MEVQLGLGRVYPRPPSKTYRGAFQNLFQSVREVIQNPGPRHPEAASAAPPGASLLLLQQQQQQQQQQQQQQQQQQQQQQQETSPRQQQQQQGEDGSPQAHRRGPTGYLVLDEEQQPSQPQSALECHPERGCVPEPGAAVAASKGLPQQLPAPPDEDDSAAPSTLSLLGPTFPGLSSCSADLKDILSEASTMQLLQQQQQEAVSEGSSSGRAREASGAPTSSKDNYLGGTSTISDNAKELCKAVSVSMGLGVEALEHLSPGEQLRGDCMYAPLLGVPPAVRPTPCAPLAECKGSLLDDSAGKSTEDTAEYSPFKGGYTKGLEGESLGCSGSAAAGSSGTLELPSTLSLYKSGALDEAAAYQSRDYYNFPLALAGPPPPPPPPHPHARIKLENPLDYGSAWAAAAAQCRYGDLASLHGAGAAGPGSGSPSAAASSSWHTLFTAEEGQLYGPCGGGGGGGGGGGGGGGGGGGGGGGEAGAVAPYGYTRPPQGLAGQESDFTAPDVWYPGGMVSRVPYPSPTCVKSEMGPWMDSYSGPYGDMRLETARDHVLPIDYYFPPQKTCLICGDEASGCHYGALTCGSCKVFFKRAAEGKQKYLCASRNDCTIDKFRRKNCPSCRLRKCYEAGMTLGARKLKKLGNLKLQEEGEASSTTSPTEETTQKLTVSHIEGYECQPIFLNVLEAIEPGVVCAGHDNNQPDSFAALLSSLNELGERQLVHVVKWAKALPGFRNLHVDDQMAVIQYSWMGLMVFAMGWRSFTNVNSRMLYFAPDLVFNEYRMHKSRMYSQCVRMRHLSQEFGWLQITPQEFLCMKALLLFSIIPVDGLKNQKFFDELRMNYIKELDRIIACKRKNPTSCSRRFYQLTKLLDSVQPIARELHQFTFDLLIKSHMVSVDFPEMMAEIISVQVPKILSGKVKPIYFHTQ
Description: Binding affinity to human AR

Androgen receptor [2] = target: T1, Androgen receptor; remark: listed apart in the source
Description: Agonist activity at human androgen receptor by luciferase reporter gene assay

Androgen receptor [3] = target: T1, Androgen receptor; remark: listed apart in the source
Description: Antagonist activity at human androgen receptor by luciferase reporter gene assay

[4] = AUC (0 to infinity) in Sprague-Dawley rat at 14.6 mg/kg, po; type: ADME, organism-based; design: time infinity, dose 14.6 mg/kg, route oral; details: plasma
Progesterone receptor = target: T2, Progesterone receptor (Homo sapiens, UniProt P06401); assay: Binding affinity to PR
T2 sequence (P06401 whole entry): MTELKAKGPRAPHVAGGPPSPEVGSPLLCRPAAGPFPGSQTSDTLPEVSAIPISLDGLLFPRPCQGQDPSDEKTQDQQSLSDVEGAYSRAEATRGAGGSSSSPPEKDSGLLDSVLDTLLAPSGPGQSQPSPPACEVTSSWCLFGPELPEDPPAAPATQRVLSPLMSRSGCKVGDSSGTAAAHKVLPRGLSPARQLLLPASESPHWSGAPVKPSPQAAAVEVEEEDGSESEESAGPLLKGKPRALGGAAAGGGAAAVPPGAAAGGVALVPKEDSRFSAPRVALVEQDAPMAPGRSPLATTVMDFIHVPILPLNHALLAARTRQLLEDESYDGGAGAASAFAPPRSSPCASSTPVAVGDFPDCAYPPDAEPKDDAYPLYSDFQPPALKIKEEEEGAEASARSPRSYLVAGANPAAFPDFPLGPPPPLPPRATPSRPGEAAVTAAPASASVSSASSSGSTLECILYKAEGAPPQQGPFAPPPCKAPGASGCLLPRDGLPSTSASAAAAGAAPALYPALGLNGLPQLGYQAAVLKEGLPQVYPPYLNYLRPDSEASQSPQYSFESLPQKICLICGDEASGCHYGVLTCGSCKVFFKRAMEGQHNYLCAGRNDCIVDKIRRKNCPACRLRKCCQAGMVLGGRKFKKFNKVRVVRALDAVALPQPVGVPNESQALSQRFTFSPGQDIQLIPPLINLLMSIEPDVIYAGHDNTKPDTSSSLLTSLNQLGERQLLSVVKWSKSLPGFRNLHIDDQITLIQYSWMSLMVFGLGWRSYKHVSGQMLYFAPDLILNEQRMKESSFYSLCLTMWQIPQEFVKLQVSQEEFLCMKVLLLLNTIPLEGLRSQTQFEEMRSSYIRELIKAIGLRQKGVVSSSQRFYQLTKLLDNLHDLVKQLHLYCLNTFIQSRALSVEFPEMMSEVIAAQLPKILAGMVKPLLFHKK

[5] = Bioavailability in Sprague-Dawley rat at 14.6 mg/kg, po; type: ADME, organism-based; details: in vivo
[6] = Half life in Sprague-Dawley rat at 2.5 mg/kg, iv; type: ADME, organism-based; design: dose 2.5 mg/kg, route intravenous; details: in vivo
Glucocorticoid receptor = target: T3, Glucocorticoid receptor (Homo sapiens, UniProt P04150); assay: Binding affinity to GR
T3 sequence (P04150 whole entry): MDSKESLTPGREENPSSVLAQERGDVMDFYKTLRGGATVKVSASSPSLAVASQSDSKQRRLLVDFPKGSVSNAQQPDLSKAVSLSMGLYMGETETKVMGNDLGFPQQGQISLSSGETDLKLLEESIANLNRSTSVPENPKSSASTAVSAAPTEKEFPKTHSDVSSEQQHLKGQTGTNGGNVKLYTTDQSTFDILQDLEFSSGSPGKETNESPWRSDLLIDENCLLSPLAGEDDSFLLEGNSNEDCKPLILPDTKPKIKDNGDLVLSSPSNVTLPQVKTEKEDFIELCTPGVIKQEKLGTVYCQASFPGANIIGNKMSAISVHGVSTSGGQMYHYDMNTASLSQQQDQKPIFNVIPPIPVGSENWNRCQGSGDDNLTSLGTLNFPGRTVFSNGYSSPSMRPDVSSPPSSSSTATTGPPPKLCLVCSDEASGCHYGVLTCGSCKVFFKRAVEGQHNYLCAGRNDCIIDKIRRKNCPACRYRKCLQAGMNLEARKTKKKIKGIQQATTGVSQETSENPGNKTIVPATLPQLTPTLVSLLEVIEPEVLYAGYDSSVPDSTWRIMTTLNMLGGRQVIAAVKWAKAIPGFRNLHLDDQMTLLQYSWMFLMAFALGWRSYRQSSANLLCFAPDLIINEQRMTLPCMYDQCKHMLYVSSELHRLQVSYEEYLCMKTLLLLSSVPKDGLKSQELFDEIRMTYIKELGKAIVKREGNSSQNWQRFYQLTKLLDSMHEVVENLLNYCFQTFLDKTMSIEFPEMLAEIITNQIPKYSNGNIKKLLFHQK

Estrogen receptor = target: T4, Estrogen receptor (Homo sapiens, UniProt P03372); assay: Binding affinity to ERalpha
T4 sequence (P03372 whole entry): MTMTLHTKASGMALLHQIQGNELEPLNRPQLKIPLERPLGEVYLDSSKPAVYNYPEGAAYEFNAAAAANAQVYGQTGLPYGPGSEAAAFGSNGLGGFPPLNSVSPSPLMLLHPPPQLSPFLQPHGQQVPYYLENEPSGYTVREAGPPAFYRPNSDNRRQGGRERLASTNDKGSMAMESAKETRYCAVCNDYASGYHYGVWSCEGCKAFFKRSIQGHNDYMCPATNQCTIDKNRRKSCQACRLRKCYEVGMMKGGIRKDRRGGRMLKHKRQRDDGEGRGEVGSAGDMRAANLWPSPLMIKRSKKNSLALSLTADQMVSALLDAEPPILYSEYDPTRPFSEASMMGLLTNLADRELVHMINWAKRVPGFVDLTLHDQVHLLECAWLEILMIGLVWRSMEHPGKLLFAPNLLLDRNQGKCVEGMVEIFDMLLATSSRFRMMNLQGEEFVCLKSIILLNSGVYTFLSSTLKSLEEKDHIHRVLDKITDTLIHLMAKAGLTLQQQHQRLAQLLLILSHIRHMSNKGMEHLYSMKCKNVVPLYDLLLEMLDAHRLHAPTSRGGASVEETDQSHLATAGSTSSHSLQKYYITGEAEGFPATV

[7] = Anabolic effect as increased levator ani muscle weight in orchidectomized rat model at doses > 1 mg/kg; type: functional, organism-based; design: dose 1 mg/kg
[8] = target: T5, Mineralocorticoid receptor (Homo sapiens, UniProt P08235); assay: Binding affinity to MR
T5 sequence (P08235 whole entry): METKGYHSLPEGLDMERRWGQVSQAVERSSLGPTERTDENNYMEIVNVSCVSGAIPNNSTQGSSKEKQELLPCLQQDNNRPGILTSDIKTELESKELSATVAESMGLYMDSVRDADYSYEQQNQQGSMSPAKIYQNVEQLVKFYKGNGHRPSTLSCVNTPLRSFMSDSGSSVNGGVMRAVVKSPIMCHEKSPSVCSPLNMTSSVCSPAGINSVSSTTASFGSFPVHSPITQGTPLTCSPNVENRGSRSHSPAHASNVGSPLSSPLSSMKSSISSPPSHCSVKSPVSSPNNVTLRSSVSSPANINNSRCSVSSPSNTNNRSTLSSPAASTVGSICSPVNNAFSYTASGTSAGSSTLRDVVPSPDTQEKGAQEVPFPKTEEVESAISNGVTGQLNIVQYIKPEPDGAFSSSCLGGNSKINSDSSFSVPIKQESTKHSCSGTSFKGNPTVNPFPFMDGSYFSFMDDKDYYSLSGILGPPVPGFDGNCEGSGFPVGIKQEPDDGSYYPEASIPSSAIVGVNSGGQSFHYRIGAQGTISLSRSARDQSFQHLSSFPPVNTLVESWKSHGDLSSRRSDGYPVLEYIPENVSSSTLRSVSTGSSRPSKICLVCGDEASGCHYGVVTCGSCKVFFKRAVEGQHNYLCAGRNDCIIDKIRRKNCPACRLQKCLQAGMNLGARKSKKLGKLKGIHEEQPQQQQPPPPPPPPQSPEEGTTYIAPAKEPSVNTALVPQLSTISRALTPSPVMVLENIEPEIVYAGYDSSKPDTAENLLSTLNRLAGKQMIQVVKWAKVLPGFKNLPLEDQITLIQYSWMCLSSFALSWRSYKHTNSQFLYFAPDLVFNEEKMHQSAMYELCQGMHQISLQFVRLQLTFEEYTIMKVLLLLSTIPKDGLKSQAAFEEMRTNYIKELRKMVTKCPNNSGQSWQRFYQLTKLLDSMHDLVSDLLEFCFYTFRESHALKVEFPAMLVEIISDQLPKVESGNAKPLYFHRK

[9] = AUC (0 to infinity) in Sprague-Dawley rat at 10 mg/kg, po; type: ADME, organism-based; design: time infinity, dose 10 mg/kg, route oral; details: plasma
[10] = Bioavailability in Sprague-Dawley rat at 10 mg/kg, po; type: ADME, organism-based; details: in vivo

Row | SMILES | Ki (Androgen receptor [1]) [nM] | EC50 (Androgen receptor [2]) [nM] | IC50 (Androgen receptor [3]) [nM] | also measured
1 | C[C@@H]1CC[C@@H](C)N1c1ccc2[nH]c(=O)cc(C(F)(F)F)c2c1 (racemic) | 43 | 48 | > 10000 | –
2 | C[C@@H]1CC[C@H](CO)N1c1ccc2[nH]c(=O)cc(C(F)(F)F)c2c1 | 70 | 21 | > 10000 | –
3 | C[C@@H]1CC[C@H]([C@@H](O)C(F)(F)F)N1c1ccc2[nH]c(=O)cc(C(F)(F)F)c2c1 [LGD-2941] | 1.5 | 7.1 | > 10000 | AUC(0-inf) [4]: 11800 ng·h/mL; Ki (Progesterone receptor): 2500 nM; bioavailability [5]: 100%; half-life [6]: 2.7 h; Ki (Glucocorticoid receptor): 8300 nM; Ki (Estrogen receptor): > 10000 nM; Anabolic activity [7]: Anabolic; Ki [8]: > 10000 nM
4 | C[C@@H]1CC[C@H](CCl)N1c1ccc2[nH]c(=O)cc(C(F)(F)F)c2c1 | 10 | 12 | > 10000 | –
5 | O=c1cc(C(F)(F)F)c2cc(N(CC(F)(F)F)CC(F)(F)F)ccc2[nH]1 | – | – | – | AUC(0-inf) [9]: 3150 ng·h/mL; half-life [6]: 1.7 h; bioavailability [10]: 43%
6 | CC1CCCN1c1ccc2[nH]c(=O)cc(C(F)(F)F)c2c1 (racemic) | 72 | – | > 10000 | –
7 | O=c1cc(C(F)(F)F)c2cc(N3CCCC3)ccc2[nH]1 | 1700 | > 10000 | 25 | –
8 | C[C@@H]1CC[C@H](C)N1c1ccc2[nH]c(=O)cc(C(F)(F)F)c2c1 | 19 | 2.6 | > 10000 | –
9 | C[C@@H]1CC[C@H]([C@H](O)C(F)(F)F)N1c1ccc2[nH]c(=O)cc(C(F)(F)F)c2c1 | 7.6 | 8.4 | > 10000 | –
